This is an account of results in ChEMBL document CHEMBL1133938, “Parallel solid-phase synthesis of zatebradine analogues as potential I(f) channel blockers” (2001).

A word on the inhibition: it is the percentage by which the read-out fell short of the control.

SMILES strings stand for the structures.

For the assay, the species on record is Cavia porcellus. Put plainly: Inhibitory activity to reduce the spontaneous beating of isolated guinea-pig atria in a concentration-dependent manner at the dose of 3 uM. It is filed as functional.
Consider `COc1cc2c(cc1OC)CC(=O)N(CCCNCCCc1ccccc1)C=C2`, for which the Max inhibition stood at 60% and the inhibition at 3 µM was 31%.
In the same order, the values of `COc1cc2c(cc1OC)CC(=O)N(CCCNCCc1ccc(Cl)cc1)C=C2` are 68% and 60%.
The compound `C=CCN(CCCN1C=Cc2cc(OC)c(OC)cc2CC1=O)CCc1ccc(OC)cc1` returned a Max inhibition of 81% and an inhibition at 3 µM of 80%.
As to `C=CCN(CCCc1ccccc1)CCCN1C=Cc2cc(OC)c(OC)cc2CC1=O`, the Max inhibition turned out to be 100% and the inhibition at 3 µM was determined as 44%.
Compound `COc1cc2c(cc1OC)CC(=O)N(CCCNCCOc1ccccc1)C=C2` came in with a Max inhibition of 80% and an inhibition at 3 µM of 53%.
The compound `COc1cc2c(cc1OC)CC(=O)N(CCCNCCCCc1ccccc1)C=C2` gave a Max inhibition of 84% and an inhibition at 3 µM of 43%.
As to `C=CCN(CCCN1C=Cc2cc(OC)c(OC)cc2CC1=O)CCc1ccc(OC)c(OC)c1`, the Max inhibition is recorded as 69% and the inhibition at 3 µM came out at 34%.
In turn, `COc1ccc(CCN(CCCN2C=Cc3cc(OC)c(OC)cc3CC2=O)Cc2ccccc2)cc1OC` yielded a Max inhibition of 59% and an inhibition at 3 µM of 25%.
In turn, `C=CCN(CCCN1C=Cc2cc(OC)c(OC)cc2CC1=O)CCc1ccccc1` displayed a Max inhibition of 71% and an inhibition at 3 µM of 53%.
In the same order, the values of `COc1cc2c(cc1OC)CC(=O)N(CCCNCCc1ccccc1)C=C2` are 81% and 60%.
Compound `C=CCN(CCCN1C=Cc2cc(OC)c(OC)cc2CC1=O)CCc1ccc(Cl)cc1` yielded a Max inhibition of 60% and an inhibition at 3 µM of 31%.
Take `C=CCN(CCCN1C=Cc2cc(OC)c(OC)cc2CC1=O)CCOc1ccccc1`: the Max inhibition is recorded as 100% and the inhibition at 3 µM stood at 42%.
In the case of `COc1ccc(CCNCCCN2CCc3cc(OC)c(OC)cc3CC2=O)cc1OC`, the Max inhibition is on record as 68% and the inhibition at 3 µM came out at 40%.
Compound `C=CCN(CCCCc1ccccc1)CCCN1C=Cc2cc(OC)c(OC)cc2CC1=O` came in with a Max inhibition of 91% and an inhibition at 3 µM of 54%.
`COc1ccc(CCNCCCN2C=Cc3cc(OC)c(OC)cc3CC2=O)cc1` displayed a Max inhibition of 69% and an inhibition at 3 µM of 60%.
Turning to `COc1ccc(CCNCCCN2C=Cc3cc(OC)c(OC)cc3CC2=O)cc1OC`, the Max inhibition was determined as 77% and the inhibition at 3 µM was 59%.
